The values that follow come from patent publication US20120156216A1, “Methods and Compositions for Treatment of Tumor Metastasis” (priority 2009, published 2012).

The conditions of data set [1]: general statement on statins; cited from earlier work.
Data set [2] concerns CTGF in M12 prostate cancer cells. The data set is described as follows: Suppression of endogenous CTGF by statins in M12 prostate cancer cells. The data set is classed as cell-based, human. The note with it: 1 μM, four days, FIG. 3A. An excerpt: The effect of statins on the TGF-β- and CTGF-induced EMT in prostate cancer cells was further tested. Several stains are available with different pharmacokinetics and biotransformation rates. […] The hydrophilic statins are absorbed preferentially by the liver, where they inhibit production of cholesterol. More lipophilic statins are readily distributed to sites beyond the liver, where they inhibit intracellular synthesis of cholesterol. These different pharmacokinetic properties of statins may greatly influence effectiveness against advanced prostate cancer in vivo.

The subject of data set [3] is CTGF in MDA 231 breast cancer cells. The data set is described as follows: Suppression of endogenous CTGF by statins in MDA 231 breast cancer cells. In kind it is cell-based, human. Particulars: 1 μM, four days, FIG. 3B.
The test system of data set [4] is radiation-induced CTGF in M12 prostate cancer cells. In words: Radiation-induced CTGF expression in M12 prostate cancer cells. The data set is classed as cell-based, human. Particulars: 1 μM, four days, FIG. 9A. An excerpt: In an effort to determine the mechanism of radiation-induced adverse effects, such as radio-resistance and increased potential of metastasis in human cancer, M12 prostate cancer cells and BEAS-2B-CSC lung cancer cells were exposed to increasing amounts of radiation, ranging from 0 to 10 Grays (Gy). To detect protein expression for CTGF and CTGF-regulated protein fibronectin, M12 and BEAS-2B-CSC cells were harvested 3 days after irradiation, and culture media (CM) and cell lysates (CL) were separated by SDS-PAGE. Western immunoblotting was performed with antibodies specific for CTGF, fibronectin, and α-tubulin. […] As a control for protein loading, α-tubulin expression was also determined.
The ability of statins to inhibit radiation-induced CTGF expression was assessed in M12 prostate cancer cells and BEAS-2B-CSC lung cancer cells.

In data set [5] the test system is CTGF and fibronectin in normal immortalized human lung fibroblasts. The data set is described as follows: Basal and TGF-β1-induced CTGF and fibronectin expression in stromal fibroblasts. The data set is classed as cell-based.
For data set [6], the system named is EMT markers in M12 prostate cancer cells. The data set is described as follows: CTGF-induced (AdCTGF) EMT marker expression in M12 prostate cancer cells, RT-PCR and Western immunoblot. In kind it is cell-based, human. An excerpt:
In order to identify direct effect of CTGF on EMT induction in human cancer, an adenoviral expression vector was used. M12 (FIGS. 5 A-B) and M2182 (FIGS. 5 C-D) prostate cancer cells were infected with either an empty adenoviral constructs or an adenoviral vector expressing CTGF (AdCTGF) for either 18 hrs or 2 days to collect total RNAs for RT-PCR (FIGS. 5 A and C) and proteins for Western immunoblot analysis (FIGS. 5 B and D), respectively.
M12 (FIGS. 6 A-B) and M2182 (FIGS. 6 C-D) prostate cancer cells were infected with either an empty adenoviral construct (ADEV) or an adenoviral vector expressing CTGF (AdCTGF) for either 18 hrs or 2 days to collect total RNAs for RT-PCR (FIGS. 5 A and C) or proteins for Western immunoblot analysis (FIGS. 5 B and D), respectively.
(In general: A western blot detects proteins with antibodies after separation by electrophoresis.)

Where [7] appears, read: stromal cells treated with TGF-β1 0 ng/ml to 25 ng/ml, 3 days, Western immunoblot, FIG. 4A.

Regarding `CC(C)n1c(/C=C/[C@@H](O)C[C@@H](O)CC(=O)O)c(-c2ccc(F)cc2)c2ccccc21` (relative stereo) [fluvastatin, (3R,5S,6E)-rel-7-[3-(4-fluorophenyl)-1-(1-methylethyl)-1H-indol-2-yl]-3,5--dihydroxy-6-heptenoic acid], in data set [1], the “solubility (fat soluble or water soluble)” value (from here on “solubility”) was “more fat soluble”.

Regarding `CC[C@H](C)C(=O)O[C@H]1C[C@@H](C)C=C2C=C[C@H](C)[C@H](CC[C@@H]3C[C@@H](O)CC(=O)O3)[C@H]21` [lovastatin, 2(S)-2-methyl-butanoic acid (1S,3R,7S,8S,8aR)-1,2,3,7,8,8a-hexahydro-3,7-dimethyl-8-[2-[(2R,4R)-tetrahydro-4-hydroxy-6-oxo-2H-pyran-2-yl]ethyl]-1-na-phthalenyl ester], the “suppression of CTGF” value in data set [2] and in data set [3] was “significant suppression” throughout. In addition, the “suppression of radiation-induced CTGF expression” value in data set [4] is given as “significant suppression”. Further, the “solubility” value in data set [1] was “more fat soluble”.

As to `CCC(C)C(=O)OC1CCC=C2C=C[C@H](C)[C@H](CC[C@@H]3CC(O)CC(=O)O3)[C@H]21` (stereo partly drawn) [mevastatin, ((1S,7S,8S,8aR)-8-{2-[(2R,4R)-4-hydroxy-6-oxotetrahydro-2H-pyran-2-yl]ethyl}-7-methyl-1,2,3,7,8,8a-hexahydronaphthalen-1-yl (2S)-2-methylbutanoate);], in data set [1], the “solubility” value is listed as “more water soluble”.

In the case of `CC[C@H](C)C(=O)O[C@H]1C[C@H](O)C=C2C=C[C@H](C)[C@H](CC[C@@H](O)C[C@@H](O)CC(=O)O)[C@H]21` [pravastatin], the “suppression of CTGF” value in data set [2] and in data set [3] was “significant suppression” throughout. The “suppression of radiation-induced CTGF expression” value in data set [4] is “significant suppression”. For the same compound, the “solubility” value in data set [1] was “more water soluble”.

For the compound `CCC(C)(C)C(=O)O[C@H]1C[C@@H](C)C=C2C=C[C@H](C)[C@H](CC[C@@H]3C[C@@H](O)CC(=O)O3)[C@H]21` [simvastatin, 2,2-dimethyl-butanoic acid (1S,3R,7S,8S,8aR)-1,2,3,7,8,8a-hexahydro-3,7-dimethyl-8-[2-[(2R,4R)-tetrahydro-4-hydroxy-6-oxo-2H-pyran-2-yl]ethyl]-1-naphthalenyl ester], the “suppression of CTGF” value in data set [2] and in data set [3] was “significant suppression” in each case. For the same compound, the “basal CTGF expression” value in data set [5] (stromal fibroblasts, simvastatin 0.1 μM to 2.0 μM, 20 hours, semi-quantitative RT-PCR, FIG. 4B) is on record as “suppression”. In data set [6] (M12 cells, AdCTGF, 5 μM simvastatin, mRNA level and protein level, FIGS. 6 A-B), the “epithelial marker E-cadherin expression” value is on record as “increase”. Also, in data set [6] (prostate cancer cells, simvastatin at concentrations, 2 μM, 4 μM, 5 μM), the “adenoviral transduced IGFBP-rP2/CTGF expression” value is on record as “did not affect”.

As to “TGF-β1: transforming growth factor beta, potent inducer of CTGF, used to treat stromal fibroblasts”, the “production of CTGF” value in data set [5] (TGF-β1 at 10 ng/ml, FIG. 4A) is listed as “robust production”. In data set [5] (setting [7]), the “expression of CTGF” value is listed as “significantly increased” and the expression of fibronectin entry is listed as “significantly increased”.
